Data on two compounds can be found in PMC7413516, “Antidepressant-like activity and safety profile evaluation of 1H-imidazo[2,1-f]purine-2,4(3H,8H)-dione derivatives as 5-HT1A receptor partial agonists” (PLoS ONE, 2020).

Several values for one entry are separate records, joined by “and”; a condition that tells them apart may be missing. Equal values may be shown once. Marks after values point to notes of the source that are not given here.

The target in one assay is T1, human serotonin 5-HT1AR (Homo sapiens, UniProt P08908).
T1 sequence (P08908 1-422): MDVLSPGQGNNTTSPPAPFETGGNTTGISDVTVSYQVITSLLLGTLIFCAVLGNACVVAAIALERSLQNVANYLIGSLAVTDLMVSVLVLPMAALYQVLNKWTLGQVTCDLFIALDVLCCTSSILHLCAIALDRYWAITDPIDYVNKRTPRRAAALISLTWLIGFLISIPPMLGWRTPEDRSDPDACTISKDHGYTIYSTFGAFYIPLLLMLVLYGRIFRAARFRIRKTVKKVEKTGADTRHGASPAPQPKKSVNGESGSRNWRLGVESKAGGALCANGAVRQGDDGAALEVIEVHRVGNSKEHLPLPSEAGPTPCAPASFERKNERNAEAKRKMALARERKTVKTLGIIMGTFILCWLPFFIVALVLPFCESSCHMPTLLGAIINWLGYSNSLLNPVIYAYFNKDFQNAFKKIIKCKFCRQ
Set-up: host or cells: CHO-K1; method as in Pytka et al. [14]. The settings on record: cAMP, CHO-K1 cells; ref Pytka et al. [14]; cited from earlier work.

In assay [1] the target is T2, human serotonin 5-HT1A receptor (Homo sapiens, UniProt P08908).
T2 sequence (P08908 1-422): T1 sequence (P08908 1-422)
Set-up: host or cells: CHO-K1; method as in Pytka et al. [14]. The conditions noted are these: pERK1/2, CHO-K1 cells; ref Pytka et al. [14]; cited from earlier work.

Another assay concerns the target T3, human 5-HT1AR (Homo sapiens, UniProt P08908).
T3 sequence (P08908 1-422): T1 sequence (P08908 1-422)
Further details: TEV protease site; Gal4-VP16 transcription factor; host or cells: U2OS (Tango GPCR-bla U2OS parental line); method as in Pytka et al. [14]. The settings on record: β-arrestin, U2OS cells; ref Pytka et al. [14]; cited from earlier work.

Assay [2] relates to mice. In words: Forced swim test (FST) in mice. It is filed as in vivo, Swiss albino mice. The conditions noted are these: given alone, 0.3 mg/kg s.c., 45 min before test. The source says: (§1) The investigated compounds AZ-853 (8-(4-(4-(2-fluorophenyl)piperazin-1-yl)butyl)-1,3-dimethyl-1H-imidazo[2,1-f]purine-2,4(3H,8H)-dione and AZ-861 (1,3-dimethyl-8-(4-(4-(3-(trifluoromethyl)phenyl)piperazin-1-yl)butyl)-1H-imidazo[2,1-f]purine-2,4(3H,8H)-dione) were synthesised in the Department of Medicinal Chemistry, Faculty of Pharmacy, Jagiellonian University, and their synthesis was described earlier. AZ-853 and AZ-861 were suspended in 1% aqueous solution of Tween 80, and WAY-100635 (Sigma, Germany) was dissolved in 0.9% saline. In acute experiments, the selected compounds AZ-853 (0.156–2.5 mg/kg) and AZ-861 (0.625–2.5 mg/kg) were injected i.p. once 60 min before tests, whereas WAY-100635 (0.3 mg/kg) was administered subcutaneously (s.c.) 45 min before the test. […] In chronic experiments, AZ-853 and AZ-861 were administered i.p. once a day (between 9:00 AM and 10:00 AM) for 16 consecutive days at the minimum active doses selected from FST experiment, i.e. 0.625 and 1.25 mg/kg, respectively. All compounds were administered to mice at a volume of 10 ml/kg and to rats at a volume of 2 ml/kg. The control groups received 1% aqueous solution of Tween 80.
The experiment was carried out according to the method of Porsolt et al.. Swiss albino mice were individually placed in a glass cylinder (25 cm high; 10 cm in diameter) containing 10 cm of water maintained at 23–25°C, and were left there for 6 min. The total duration of immobility was recorded during the last 4 min of a 6-min. A mouse was regarded as immobile when it remained floating on the water, making only small movements to keep its head above it.
(§2) The Swiss albino mice were used in the experiment. AZ-853 and AZ-861 were injected once daily for 16 consecutive days. On the 1st and 15th day the administration of the compounds, 18-h spontaneous animal activity was registered (see below). FST, as described earlier, was performed on the 14th day just before the next treatment. To ensure that the effects observed in FST are not the result of increased motility of animals, on the 13th day, just before the next administration, the locomotor activity was measured as described earlier, from 2 to 6 min after test start, i.e. in the period identical to the duration of FST. Blood and organ collection was performed on the 17th day at 24 h after the last dose and fasting.

Assay [3] deals with mice. In words: Locomotor activity (Opto M3 activity monitor) in mice. It is filed as in vivo, Swiss albino mice.
Source text: as §1, with “[…].” for “All compounds were administered to mice at a volume of 10 ml/kg and to rats at a volume of 2 ml/kg.”
Locomotor activity was recorded with an Opto M3 multi-channel activity monitor (MultiDevice Software v.1.3, Columbus Instruments). The Swiss albino mice were individually placed in plastic cages (220 × 120 × 130 mm) for 30 min habituation period, and then the crossings of each channel (ambulation) were counted from […] to 6 min, that is the time equal to the observation period in FST. The cages were cleaned up with 70% ethanol after each mouse.
as §2, with “[…].” for “On the 1st and 15th day the administration of the compounds, 18-h spontaneous animal activity was registered (see below).”

Turning to `COc1ccccc1N1CCN(CC(C(=O)NC(C)(C)C)c2ccccc2)CC1` (stereo not shown) [WAY-100135], the “Emax (%) ± SEM, agonist mode” value at human serotonin 5-HT1AR is reported as 2±0.5^c %; in assay [1] it was 2±1.0^c %; at human 5-HT1AR, 1±0.5^c %.
As for `COc1ccccc1N1CCN(CCN(C(=O)C2CCCCC2)c2ccccn2)CC1` [WAY-100635, reference compound], the “effect on immobility in FST” value in the assay on mice [2] is given as “had no effect on immobility”. The “effect on spontaneous locomotor activity, acute administration” value with mice [3] (4 min period identical to FST, AZ-853 0.625, 1.25, 2.5 mg/kg, AZ-861 1.25 mg/kg, WAY-100635 0.3 mg/kg alone or combined) is reported as “did not change the locomotor activity”. The “Number of movements (individual animals)” value with mice [3] (acute, WAY-100635 0.3 mg/kg alone, 3 to 6 min, raw data, 0.3 mg/kg) is 130 and 88 and 93 and 242 and 100 and 107. The “Number of movements (mean)” value with mice [3] (acute, WAY-100635 alone 0.3 mg/kg s.c., 3 to 6 min) turned out to be 122.9.
